Nine compounds from US11083720B2, “Indazole inhibitors of fructokinase (KHK) and methods of use in treating KHK-mediated disorders or diseases” (REGENTS OF THE UNIVERSITY OF COLORADO, A BODY CORPORATE, priority 2017, dated 2021) can be followed below.

KHK-C, sequence (P50053 whole entry, the tested form may be a part): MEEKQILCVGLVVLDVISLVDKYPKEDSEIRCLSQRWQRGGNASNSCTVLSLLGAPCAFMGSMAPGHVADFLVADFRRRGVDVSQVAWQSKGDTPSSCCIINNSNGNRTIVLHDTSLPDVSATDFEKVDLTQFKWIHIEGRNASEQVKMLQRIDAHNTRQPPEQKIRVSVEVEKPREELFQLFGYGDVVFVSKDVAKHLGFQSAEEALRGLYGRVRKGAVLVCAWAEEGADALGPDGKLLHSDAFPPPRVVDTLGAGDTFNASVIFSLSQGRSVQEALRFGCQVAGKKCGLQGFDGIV

In one experiment the target is KHK-C (Homo sapiens (Human), UniProt P50053). Nature of the experiment: 3-step coupled-enzyme KHK assay (KHK, PK, LDH; NADH disappearance). It is filed as biochemical. The note with it: recombinant KHK-C, 1 mM fructose, A340 at 37° C. On the procedure:
Specific high-throughput screening assays were developed for KHK-C and KHK-A using recombinant proteins. Purified human recombinant KHK-C and KHK-A were produced using the Bio-Rad Profinity eXact Fusion-Tag System and Profinia protein purification instrument. The assays consist of a 3-step, coupled-enzyme process involving fructokinase (KHK), pyruvate kinase (PK) and lactate dehydrogenase (LDH). ^1,2 The disappearance of NADH is measured kinetically by A340 at 37° C. The enzymatic assay was carried out in a total reaction volume of 200 ul containing 50 mM PIPES, 6 mM MgCl2, 100 mM KCl, 100 uM-5 mM ATP, 2 mM phosphoenolpyruvate, 0.3 mM NADH, 15 U of pyruvate kinase, 15 U of lactate dehydrogenase, and 75-1000 ng KHKC. 1 mM fructose was added to the reactions, except for the no fructose controls which utilized water. The high-throughput assay was used to identify inhibitors that have an IC50 value <5 μM for KHK-C.^5 The '559 pub also sets forth a KHK assay for testing inhibition activity of potential KHK inhibitors.
For `Cc1cccc(-n2ncc3ccc(C(=O)NC4CNC4)cc32)c1` [Compound C-33, N-(azetidin-3-yl)-1-(m-tolyl)-1H-indazole-6-carboxamide], the IC50 worked out at 2300 nM. With `Cc1cccc(-n2ncc3ccc(-c4ccnc(N)c4)cc32)c1` [Compound C-5, 4-(1-(m-tolyl)-1H-indazol-6-yl)pyridin-2-amine], the 50% inhibitory concentration (IC50) is 280 nM. Consider `Cc1cccc(-n2ncc3ccc(NC(=O)C4CCN4)cc32)c1` (stereo not shown) [Compound C-72], for which the IC50 worked out at 1200 nM. `Cc1cccc(-n2ncc3ccc(NC(=O)C4CNC4)cc32)c1` [Compound C-25, N-(1-(m-tolyl)-1H-indazol-6-yl)azetidine-3-carboxamide]: the IC50 turned out to be 510 nM. Consider `Nc1cc(-c2ccc3c(C4CC4)nn(-c4ccccc4)c3c2)ccn1` [Compound C-28, 4-(3-cyclopropyl-1-phenyl-1H-indazol-6-yl)pyridin-2-amine], for which the half-inhibitory concentration (IC50) is 700 nM. `O=C(NC1CCNCC1)c1ccc2cnn(-c3ccccc3)c2c1` [Compound C-26, 1-phenyl-N-(piperidin-4-yl)-1H-indazole-6-carboxamide]: the IC50 amounted to 2300 nM. For `Cc1cccc(-n2ncc3ccc(C(=O)NC4CCNCC4)cc32)c1` [Compound C-32, N-(piperidin-4-yl)-1-(m-tolyl)-1H-indazole-6-carboxamide], the IC50 was 790 nM. On to `O=C(NC1CNC1)c1ccc2cnn(-c3ccccc3)c2c1` [Compound C-34, N-(azetidin-3-yl)-1-phenyl-1H-indazole-6-carboxamide], for which the 50% inhibitory concentration (IC50) worked out at 580 nM.

The experiment is the same for the next values; noted with them: recombinant KHK-C, 1 mM fructose, A340 at 37° C.; heading: IC50 Result.
`Nc1cc(-c2ccc3cnn(-c4ccccc4)c3c2)ccn1` [Compound C-1, 4-(1-phenyl-1H-indazol-6-yl)pyridin-2-amine]: the half-inhibitory concentration (IC50) worked out at 1170 nM.

Another experiment deals with aldoB−/− KO mice. The experiment in a line: Fructose-induced hypoglycemia in Aldolase B Knockout Mice. It is filed as in vivo. The note with it: 25 mg/kg IP 30 min before and repeated at oral fructose gavage (1.5 g/kg), glucose over 90 minutes. An excerpt: Example 12 describes fructokinase inhibition results and fructose-induce hypoglycemia prevention results obtained from in vivo assay in Aldolase B Knockout Mice. Hereditary Fructose intolerance is a rare genetic disease due to deficiency of aldolase B that is associated with over activation of KHK-C. One of the key features in these individuals is the development of acute hypoglycemia following exposure to fructose ingestion due to rapid uptake of glucose into the liver with the formation of glycogen. Recently, an aldolase-B KO (aldoB^−/−) mouse that has the clinical features of HFI in humans was developed. These mice develop immediate dose-dependent hypoglycemia in response to fructose, but also develop fatty liver within days of low grade fructose feeding.
The procedure used in Example 12 consisted of first fasting animals for six hours, followed by the administration of fructose by oral gavage (45 mg fructose, equivalent to 1.5 g/kg body weight) or vehicle (water) to mice and following serum glucose levels over 90 minutes by measuring glucose with a glucometer from tail snip bleeds. With vehicle administration serum glucose stays normal, but when fructose is administered to aldolase B knockout mice a progressive fall in serum glucose occurs, as noted by the percent (%) of the baseline level. […]
Consider `Cc1cccc(-n2ncc3ccc(NC(=O)C4CNC4)cc32)c1` [Compound C-25, N-(1-(m-tolyl)-1H-indazol-6-yl)azetidine-3-carboxamide], for which the “hypoglycemic response to fructose (serum glucose, % of baseline)” value was “hypoglycemic response was prevented”.

As usually defined, the IC50 is the concentration needed to halve the response being measured.
